# Assay results from patent publication US5234934A, “Aminopropanol derivatives, process for their preparation and pharmaceutical compositions comprising the same” (priority 1989, dated 1993).
# Like-named read-outs stand apart in the source and are kept apart here.
# How the values were obtained:
# [1] = acute toxicity test in mice (Litchfield and Wilcoxon); type: in vivo, mouse; conditions: mouse, in vivo, po., 14 days observation
# Description: The test for acute toxicity was carried out by using 10 white mice (CFLP strain) (both male and female), weighing 18 to 22 g in each dose group. The compounds of the invention were administered orally in a dose of 20 ml/kg.
# The animals were kept in a plastic box on wood chips in a room of room temperature. They could consume tap water and standard mouse feed ad libitum. The toxicity data were determined by the method of Litchfield and Wilcoxon (Litchfield, J. T., Wilcoxon, F. W.: J. Pharmacol. Exp. Ther. 96, 99/1949/).
# gastric acid secretion = gastric acid secretion test (Shay); type: in vivo, rat; conditions: Rattus norvegicus, read-out: Inhibition of free acid, %
# Description: The test was carried out according to Shay's operational method. […] On the day of the test the pylorus of the animals was bound under ether narcosis. The test compounds were administered orally 3 hours before the operation. The animals of the control group were administered with the carrier only. 4 hours after the operation the stomach was removed, the content thereof was centrifuged and the amount of free acid was determined by titration with 0.1N sodium hydroxide.
# [2] = tested on: peristalty of stomach and intestines; assay: effect exerted on the peristalty of stomach and intestines (Stickney et al., carbon suspension); type: in vivo, mouse; conditions: for ED50: Mus musculus, read-out: ED50 (antiperistaltic); for TI (therapeutic index): antiperistaltic
# Description: The antiperistaltic effect of the compounds was examined by the method of Stickney et al. on white mice of both sexes, weighing 20 to 25 g. The compounds to be tested were administered per os 60 minutes before the addition of carbon suspension to groups containing 10 mice each. The animals of the control groups were treated at the same time and in the same manner with the carrier only. The mice were killed 10 minutes after the addition of the carbon suspension, and the whole length of the intestines as well as the length of the intestines filled with carbon suspension were measured.
# [3] = tested on: aconitine-induced ECG alterations; assay: animal or person; type: in vivo, rat; conditions: Rattus norvegicus, iv, read-out: Effect % (antiarrhythmic)
# Description: The test was carried out by using the modified method of Marmo et al. on rats weighing 160 to 200 g. The animals were narcotised by ethyl uretane (1.2 g/kg ip.). Aconitin was administered intravenously in a dose of 75 /ug/kg in the form of a bolus injection. The ECG alterations were monitored in standard II lead by 5 minutes after the administration of aconitine. The observed alterations were classified into classes 0 to 5. The compounds of the invention were administered 2 minutes or 60 minutes before the parenteral or oral administration of aconitine, respectively. […]
# class 1: sometimes an extrasystole occurs class 2: each second one is an extrasystole class 3: extrasystoles in groups class 4: each one is an extrasystole class 5: fibrillation, death
# (Marmo, E., DiGiacomo, S., Imperatore, A.: Arzeimittel-Forschung 20, 12/1970/)
# hexobarbital narcosis = assay: narcosis potentiating effect (hexobarbital sleeping time); conditions: for ED50: Mus musculus, po, read-out: ED50 (narcosis potentiation); for TI (therapeutic index): narcosis potentiation, mice, po.
# Description: The narcosis potentiating effect of the compounds of the invention were examined on white mice, with 6 animals in each group. The mice were administered orally with the compounds of the invention, then both the control and the test groups were intravenously added 40 mg/kg of hexobarbital in order to make the mice sleep (Kaergard et al.).
# nervus ischiadicus = assay: local analgesic effect (Truant d'Amato's method); type: in vivo; conditions: for EC50 %: 0.2 ml injected around nervus ischiadicus; for Duration of effect: in a conc. of 0.5%
# Description: The tests were carried out according to Truant d'Amato's method. 0.2 ml of test material was injected around the nervus ischiadicus in the middle of femur with a needle of 1 cm length. The criterion of analgesic effect was the lack of the motoric control of foot muscles.
# The duration of effect was registered and the 50 percentile effective concentration (EC50) was calculated on the basis of the dose-effect curve. Lidocain was used as comparative material. (Truant, A. P., D'Amato, D.: Acta Chir Scand. 116, 351/1958/)
smiles,measurement,setting,value
"CN1CCN(CC(O)CO/N=C2\CCCC\C2=C/c2ccccc2)CC1 (racemic) [Example 4, R,S-2-(E)-Phenylmethylene-1-(E)-[3-(4-methyl-1-piperazinyl)-2'-hydroxy-propoxyimino]-cyclohexane]",LD50 at 336 h,[1],1800 mg/kg
same,inhibition in vivo at 200 mg/kg,"gastric acid secretion; dose 200 mg/kg po., rats",77%
"OC(CO/N=C1\CCCC\C1=C/c1ccccc1)CN1CCN(c2ccccc2)CC1 (racemic) [Example 5, R,S-2-(E)-Phenylmethylene-1-(E)-[3-(4-phenyl-1-piperazinyl)-2-hydroxy-propoxyimino]-cyclohexane]",LD50 at 336 h,[1],> 1000 mg/kg
same,ED50,"[2]; po., mice",70 mg/kg
same,TI (therapeutic index),"[2]; po., mice",14
"OC(CO/N=C1\CCCC\C1=C/c1ccccc1)CN1CCN(Cc2ccccc2)CC1 (racemic) [Example 6, R,S-2-(E)-Phenylmethylene-1-(E)-[3-(4-phenylmethyl-1-piperazinyl)-2-hydroxy-propoxyimino]-cyclohexane]",LD50 at 336 h,[1],> 1000 mg/kg
same,ED50,"[2]; po., mice",140 mg/kg
same,TI (therapeutic index),"[2]; po., mice",7
"OC(CO/N=C1\CCCC\C1=C/c1ccccc1)CN1CCN(c2ccc(Cl)cc2)CC1 (racemic) [Example 12, R,S-2-(E)-Phenylmethylene-1-(E)-{[4-(4-chlorophenyl)-1-piperazinyl]-2-hydroxy-propoxyimino}-cyclohexane]",LD50 at 336 h,[1],1000 mg/kg
same,ED50,"[2]; po., mice",~200 mg/kg
same,TI (therapeutic index),"[2]; po., mice",about 5
OCCN1CCN(CC(O)CO/N=C2\CCCC\C2=C/c2ccccc2)CC1 (racemic) [Example 13],LD50 at 336 h,[1],> 1000 mg/kg
same,inhibition in vivo at 200 mg/kg,"gastric acid secretion; dose 200 mg/kg po., rats",74%
"OC(CO/N=C1\CCCCC\C1=C/c1ccccc1)CN1CCOCC1 (racemic) [Example 15, R,S-2-(E)-Phenylmethylene-1-(E)-(3-morpholino-2-hydroxypropoxyimino)-cycloheptane]",LD50 at 336 h,[1],> 1000 mg/kg
same,ED50,"[2]; po., mice",140 mg/kg
same,TI (therapeutic index),"[2]; po., mice",7
"OC(CO/N=C1\CCCCCC\C1=C/c1ccccc1)CN1CCOCC1 (racemic) [Example 18, R,S-2-(E)-Phenylmethylene-1-(E)-(3-morpholino-2-hydroxy-propoxyimino)-cyclooctane]",LD50 at 336 h,[1],> 1000 mg/kg
same,change in vivo at 4 mg/kg,[3],-50%
same,inhibition in vivo at 200 mg/kg,"gastric acid secretion; dose 200 mg/kg po., rats",68%
same,ED50,hexobarbital narcosis,25 mg/kg
same,TI (therapeutic index),hexobarbital narcosis,> 40
"CN1CCN(CC(O)CO/N=C2\CCCCCC\C2=C/c2ccccc2)CC1 (racemic) [Example 20, R,S-2-(E)-Phenylmethylene-1-(E)-[3-(4-methyl-1-piperazinyl)-2-hydroxy-propoxyimino]-cyclooctane]",LD50 at 336 h,[1],> 1000 mg/kg
same,ED50,"[2]; po., mice",~100 mg/kg
same,TI (therapeutic index),"[2]; po., mice",about 10
same,ED50,hexobarbital narcosis,21.5 mg/kg
same,TI (therapeutic index),hexobarbital narcosis,> 46.5
"CC(C)N(CC(O)CO/N=C1\CCC\C1=C/c1ccccc1)C(C)C (racemic) [Example 21, R,S-2-(E)-Phenylmethylene-{3-[bis-(1-methylethyl)-amino]-2-hydroxy-propoxyimino}-cyclopentane]",LD50 at 336 h,[1],700 mg/kg
same,change in vivo at 4 mg/kg,[3],-46%
same,EC50 %,nervus ischiadicus,0.24%
same,Duration of effect,nervus ischiadicus,89 min
"CCCCNCC(O)CO/N=C1\CCCC\C1=C/c1ccc(Cl)cc1 (racemic) [Example 29, R,S-2-(E)-(4-Chlorophenyl-methylene)-1-(E)-(3-butylamino-2-hydroxy-propoxyimino)-cyclohexane]",LD50 at 336 h,[1],1300 mg/kg
same,inhibition in vivo at 260 mg/kg,"gastric acid secretion; dose 260 mg/kg po., rats",87%
same,ED50,hexobarbital narcosis,30 mg/kg
same,TI (therapeutic index),hexobarbital narcosis,43
"CC(C)CNCC(O)CO/N=C1\CCCC\C1=C/c1ccc(Cl)cc1 (racemic) [Example 30, R,S-2-(E)-(4-Chlorophenyl-methylene)-1-(E)-[3-(2-methylpropylamino)-2-hydroxy-propoxyimino]-cyclohexane]",LD50 at 336 h,[1],1100 mg/kg
same,ED50,"[2]; po., mice",130 mg/kg
same,TI (therapeutic index),"[2]; po., mice",8
"C#CC(C)(C)NCC(O)CO/N=C1\CCCC\C1=C/c1ccc(Cl)cc1 (racemic) [Example 32, R,S-2-(E)-(4-Chlorophenyl-methylene)-1-(E)-[3-(1,1-dimethylpropin-2-yl-amino)-2-hydroxy-propoxyimino]-cyclohexane]",LD50 at 336 h,[1],> 2000 mg/kg
same,inhibition in vivo at 400 mg/kg,"gastric acid secretion; dose 400 mg/kg po., rats",62%
same,ED50,hexobarbital narcosis,50 mg/kg
same,TI (therapeutic index),hexobarbital narcosis,> 40
"CCCCNCC(O)CO/N=C1\CCCC\C1=C/c1ccc(Cl)c(Cl)c1 (racemic) [Example 33, R,S-2-(E)-(3,4-Dichlorophenyl-methyl)-1-(E)-(3-butylamino-2-hydroxy-propoxyimino)-cyclohexane]",LD50 at 336 h,[1],> 1000 mg/kg
same,inhibition in vivo at 200 mg/kg,"gastric acid secretion; dose 200 mg/kg po., rats",100%
"COc1ccccc1/C=C1\CCCC\C1=N/OCC(O)CN1CCN(c2ccccc2OC)CC1 (racemic) [Example 38, R,S-2-(E)-(2-Methoxyphenyl-methylene)-1-(E)-{[4-(2-methoxyphenyl)-1-piperazinyl]-2-hydroxy-propoxyimino}-cyclohexane]",LD50 at 336 h,[1],> 1000 mg/kg
same,ED50,"[2]; po., mice",23 mg/kg
same,TI (therapeutic index),"[2]; po., mice",44
same,ED50,hexobarbital narcosis,61 mg/kg
same,TI (therapeutic index),hexobarbital narcosis,16
"COc1ccc(/C=C2\CCCC\C2=N/OCC(O)CNC2CC2)cc1 (racemic) [Example 40, R,S-2-(E)-(4-Methoxyphenyl-methylene)-1-(E)-(3-cyclopropylamino-2-hydroxy-propoxyimino)-cyclohexane]",LD50 at 336 h,[1],800 mg/kg
same,EC50 %,nervus ischiadicus,0.19%
same,Duration of effect,nervus ischiadicus,68 min
same,inhibition in vivo at 160 mg/kg,"gastric acid secretion; dose 160 mg/kg po., rats",57%
"COc1ccc(/C=C2\CCCC\C2=N/OCC(O)CNCCCN(C)C)cc1 (racemic) [Example 41, R,S-2-(E)-(4-Methoxyphenyl-methylene)-1-(E)-[3-(3-dimethylamino-1-propylamino)-2-hydroxy-propoxyimino]-cyclohexane]",LD50 at 336 h,[1],> 1000 mg/kg
same,inhibition in vivo at 200 mg/kg,"gastric acid secretion; dose 200 mg/kg po., rats",67%
"CN(CC(O)CO/N=C1\CCCC\C1=C/c1ccc(Cl)cc1)C1CCCCC1 (racemic) [Example 45, R,S-2-(E)-(4-Chlorophenyl-methylene)-1-(E)-[3'-(N-methyl-N-cyclohexylamino)-2-hydroxy-propoxyimino]-cyclohexane]",LD50 at 336 h,[1],> 1000 mg/kg
same,inhibition in vivo at 200 mg/kg,"gastric acid secretion; dose 200 mg/kg po., rats",100%
"CC(C)NCC(O)CO/N=C1\CCCCCC\C1=C/c1ccccc1 (racemic) [Example 48, R,S-2-(E)-Phenylmethylene-1-(E)-[3-(1-methylethyl-amino)-2-hydroxypropxyimino]-cyclooctane]",LD50 at 336 h,[1],> 1000 mg/kg
same,change in vivo at 4 mg/kg,[3],-43.5%
same,EC50 %,nervus ischiadicus,0.31%
same,Duration of effect,nervus ischiadicus,122 min
same,inhibition in vivo at 100 mg/kg,"gastric acid secretion; dose 100 mg/kg po., rats",75%
"CN/C(=N/CCSCc1nc[nH]c1C)NC#N [Cimetidine, reference compound]",inhibition in vivo at 100 mg/kg,gastric acid secretion; po,66%
same,inhibition in vivo at 200 mg/kg,gastric acid secretion; po,91%
"CCN(CC)CC(=O)Nc1c(C)cccc1C [Lidocain, reference compound]",EC50 %,nervus ischiadicus,0.19%
same,Duration of effect,nervus ischiadicus,34 min
"COc1ccc(Cc2nccc3cc(OC)c(OC)cc23)cc1OC [Papaverine, reference compound]",inhibition (antiperistaltic),"[2]; 280 mg/kg po., mice",36%
same,ED50,[2]; po,> 280 mg/kg
"COc1cc(C(=S)N2CCOCC2)cc(OC)c1OC [Trithiozine, reference compound]",inhibition in vivo at 100 mg/kg,gastric acid secretion; po,30%
same,inhibition in vivo at 400 mg/kg,gastric acid secretion; po,63%
